Reference: patent publication US20090111804A1, “ARYLINDENOPYRIMIDINES AND THEIR USE AS ADENOSINE A2a” (priority 2007, published 2009)

What was measured:
A1 = biological target: T1, A1 (Homo sapiens, UniProt P30542); test: A1 cell-based functional assay
T1 sequence (P30542 1-326): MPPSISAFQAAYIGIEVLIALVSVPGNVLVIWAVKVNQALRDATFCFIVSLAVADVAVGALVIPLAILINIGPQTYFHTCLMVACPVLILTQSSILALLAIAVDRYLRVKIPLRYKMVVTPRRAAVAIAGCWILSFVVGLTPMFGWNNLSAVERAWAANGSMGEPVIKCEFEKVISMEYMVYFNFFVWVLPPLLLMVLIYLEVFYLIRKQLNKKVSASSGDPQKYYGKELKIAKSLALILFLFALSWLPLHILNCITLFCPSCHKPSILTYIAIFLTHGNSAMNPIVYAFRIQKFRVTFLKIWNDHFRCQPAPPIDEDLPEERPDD

[1] = biological target: T2, human adenosine A2a receptors (Homo sapiens, UniProt P29274); test: Adenosine A2a receptor cell-based functional assay (cAMP-inducible beta-galactosidase reporter); settings: CHO-K1 cells overexpressing human adenosine A2a receptors; antagonist assay with 50 nM NECA
T2 construct: expressed in transfected cells; host or cells: CHO-K1
T2 sequence (P29274 whole entry): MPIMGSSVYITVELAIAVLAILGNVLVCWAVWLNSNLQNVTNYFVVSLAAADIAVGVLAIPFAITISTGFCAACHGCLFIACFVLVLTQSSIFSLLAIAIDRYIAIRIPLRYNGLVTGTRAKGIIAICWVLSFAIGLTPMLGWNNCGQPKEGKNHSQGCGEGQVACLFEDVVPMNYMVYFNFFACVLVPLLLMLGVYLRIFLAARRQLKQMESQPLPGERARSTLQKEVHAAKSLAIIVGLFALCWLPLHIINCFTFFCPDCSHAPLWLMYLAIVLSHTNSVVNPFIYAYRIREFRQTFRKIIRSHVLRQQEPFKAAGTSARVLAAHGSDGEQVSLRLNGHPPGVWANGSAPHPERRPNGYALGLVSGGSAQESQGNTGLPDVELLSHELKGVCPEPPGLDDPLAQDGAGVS
Protocol: Nonspecific binding was determined by […] NECA. […] Data was analyzed in Microsoft Excel and GraphPad Prism programs. […] For agonist assay, adenosine A2a receptor agonist NECA was subsequently added and cell incubated at 37° C., 5% CO2 for 5 hrs before stopping reaction. In the case of antagonist assay, cells were incubated with antagonists for 5 minutes at R.T. followed by addition of 50 nM NECA. Cells were then incubated at 37° C., 5% CO2 for 5 hrs before stopping experiments by washing cells with PBS twice. […] Color was allowed to develop at 37° C. for 1 h or until reasonable signal appeared. […] Data was analyzed in Microsoft Excel and GraphPad Prism programs.

Ki (A1)	Ki [1]	Structure (SMILES)
49.6 nM		Nc1nc(-c2ccccc2)c2c(n1)-c1cc(OCCN3CCOCC3)ccc1C2=O [A, 2-Amino-8-(2-morpholin-4-yl-ethoxy)-4-phenyl-indeno[1,2-d]pyrimidin-5-one]
37.3 nM	13.1 nM	CC1CCC(C)N1Cc1ccc2c(c1)-c1nc(N)nc(-c3ccccc3)c1C2=O (centres unmarked) [B, 2-Amino-8-(2,5-dimethyl-pyrrolidin-1-ylmethyl)-4-phenyl-indeno[1,2-d]pyrimidin-5-one]
4.4 nM	0.4 nM	Nc1nc(-c2ccccc2)c2c(n1)-c1cc(Cc3cccnc3)ccc1C2=O [C, 2-Amino-4-phenyl-8-pyridin-3-ylmethyl-indeno[1,2-d]pyrimidin-5-one]
